Measurements from patent US20220242812A1, “SWELL1-LRRC8 COMPLEX MODULATORS” (Washington University, priority 2019, published 2022).
Like-named read-outs stand apart in the source and are kept apart here.

Assays:
R103E mutant SWELL1 = target: T1, R103E mutant SWELL1 (Homo sapiens, UniProt Q8IWT6, R103E); test: ICl,SWELL inhibition in R103E mutant SWELL1 overexpressing HEK-293 cells; assay type: cell-based; conditions: R103E expressing HEK cells, 10 and 7 μM
T1 construct: expressed in transfected cells; host or cells: HEK-293

HFD-T2D mice, NAFLD = test: Liver mass, triglycerides and NAFLD histology in HFD mice; assay type: in vivo; conditions: vs vehicle
Procedure: Gross liver weights were measured and identical sections from right medial lobe of liver were dissected for further examinations. Total triglyceride content was determined by homogenizing 10-50 mg of tissue in 1.5 ml of chloroform:methanol (2:1 v/v) and centrifuged at 12000 rpm for 10 mins at 4° C. An aliquot, 20 ul, was evaporated in a 1.5 ml microcentrifuge tube for 30 mins. Triglyceride content was determined by adding 100 μl of Infinity Triglyceride Reagent (Fisher Scientific) to the dried sample followed by 30 min incubation at RT. The samples were then transferred to a 96 well plate along with standards (0-2000 mg/di) and absorbance was measured at 540 nm and the final concentration was determined by normalizing to tissue weight. For histological examination, liver sections were fixed in 10% zinc formalin and paraffin embedded for sectioning. Hematoxylin and eosin (H&E) stained sections were then assessed for steatosis grade, lobular inflammation and hepatocyte ballooning for non-alcoholic fatty liver disease (NAFLD) scoring as described (Kleiner et al., 2005; Liang et al., 2014; Rauckhorst et al., 2017).
Nonalcoholic fatty liver disease (NAFLD), like T2D, is associated with insulin resistance. NASH is an advanced form of nonalcoholic liver disease defined by three histological features: hepatic steatosis, hepatic lobular inflammation, hepatocyte damage (ballooning) and can be present without or without fibrosis. NAFLD and T2D likely share at least some pathophysiologic mechanisms because more than one-third of patients (37%) with T2D have NASH and almost one-half of patients with NASH (44%) have T2D. […] This improved metabolic state can reduce ectopic lipid deposition and NAFLD that is associated with obesity and T2D.

SWELL1 protein [1] = target: T2, SWELL1 protein (Mus musculus, UniProt Q80WG5); test: SWELL1 protein expression in adipose tissue of treated T2D mice; assay type: in vivo; parameters: western blots detecting SWELL1 protein in visceral fat of C57BL/6 mice on high-fat diet; from tissue; host or cells: visceral / inguinal adipose tissue of C57BL/6 HFD and KKAy mice; conditions: 5 mg/kg i.p.
Procedure: (§1) All compounds were dissolved in Kolliphor® EL (Sigma, #C5135).
(SEQ ID NO: 13) (Pacific Antibodies).

SWELL1 protein [2] = target: T2, SWELL1 protein; conditions: for SWELL1 protein expression: applied for 96 hours (10 μM)
human Kv = conditions: cited from earlier work
non-T2D mice = test: Metabolic phenotyping in non-T2D mice (KKAa control strain, lean chow-fed); assay type: in vivo
Procedure: as §1
Mice were fasted for 6 h prior to glucose tolerance tests (GTT). Baseline glucose levels at 0 min timepoint (fasting glucose, FG) were measured from blood sample collected from tail snipping using glucometer (Bayer Healthcare LLC). Either 1 g or 0.75 g D-Glucose/kg body weight were injected (i.p.) for lean or HFD mice, respectively and glucose levels were measured at 7, 15, 30, 60, 90 and 120 min timepoints after injection. For insulin tolerance tests (ITTs), the mice were fasted for 4 h. Similar to GTTs, the baseline blood glucose levels were measured at 0 min timepoint and 15, 30, 60, 90 and 120 min timepoints post-injection (i.p.) of insulin (HumulinR, 1 U/kg body weight for lean mice or 1.25 U/kg body weight for HFD mice). […] The collected plasma was then measured for insulin content by using Ultra-Sensitive Mouse Insulin ELISA Kit (Crystal Chem, #90080). All mice and treatment groups were assessed blindly while performing experiments.

[3] = system: cytochrome p450 isoenzyme; test: Cytochrome P450 inhibition assay, overall statement; assay type: in vitro ADME, Human; conditions: in words
[4] = system: delayed rectifier channels; conditions: cited from earlier work
hERG = hERG (Homo sapiens, UniProt Q12809); conditions: cited from earlier work
[5] = Tolerability of chronic daily i.p. injection; assay type: in vivo, mice; conditions: daily i.p. injections for up to 8 weeks
Procedure: as §1

[6] = HFD 16 weeks then intermittent dosing over 5 weeks
[7] = lean, non-T2D, glucose-tolerant mice, vs vehicle

| ICl,SWELL inhibition in R103E mutant vs WT (R103E mutant SWELL1) | Compound | Absolute and body mass-normalized liver mass (HFD-T2D mice, NAFLD; [6]) | Hepatic triglyceride concentration (HFD-T2D mice, NAFLD; [6]) | Hepatic steatosis (histologic evaluation) (HFD-T2D mice, NAFLD; HFD mice) | Hepatocyte damage (histologic evaluation) (HFD-T2D mice, NAFLD; HFD mice) | Improvement of NAFLD activity score (NAS) (HFD-T2D mice, NAFLD; HFD mice) | SWELL1 expression in adipose tissue (SWELL1 protein [1]; HFD-fed T2D mice) | SWELL1 expression in adipose tissue (SWELL1 protein [1]; T2D KKAy mice, compared to non-T2D C57/B6 and KKAa) | EC50 (SWELL1 protein [2]) | SWELL1 protein expression (SWELL1 protein [2]; 3T3-F442A adipocytes) | SWELL1 protein expression (SWELL1 protein [2]; 3T3-F442A preadipocytes) | Effect on human Kv channels (human Kv) | Hypoglycemia (non-T2D mice; control KKAa parental strain, 5 mg/kg x 4-10 days) | FG (non-T2D mice; [7]) | GTT (non-T2D mice; [7]) | ITT (non-T2D mice; [7]) | Cytochrome p450 isoenzyme inhibition [3] | Effect on delayed rectifier channels [4] | Effect on hERG (hERG) | Signs of toxicity [5] |
| --- | --- | --- | --- | --- | --- | --- | --- | --- | --- | --- | --- | --- | --- | --- | --- | --- | --- | --- | --- | --- |
| reduced | CCCCC1(C2CCCC2)Cc2cc(OCCCCCC(=O)O)c(Cl)c(Cl)c2C1=O (centres unmarked) [SN-406, 6-((2-butyl-6,7-dichloro-2-cyclopentyl-1-oxo-2,3-dihydro-1H-inden-5-yl)oxy)hexanoic acid] |  |  |  |  |  |  |  |  |  |  |  |  |  |  |  |  |  |  |  |
|  | CCCCC1(C2CCCC2)Cc2cc(OCCCC(=O)O)c(Cl)c(Cl)c2C1=O (centres unmarked) [SN-401, 4-((2-butyl-6,7-dichloro-2-cyclopentyl-1-oxo-2,3-dihydro-1H-inden-5-yl)oxy)butanoic acid] | reduced | lower | significantly reduced | significantly reduced | > 2 points | 2.3 fold | increases | < 1 µM | 1.5 fold control expression | 3 fold control expression | no effect | does not cause hypoglycemia | similar | similar | similar | minimal | no effect | no effect | no overt signs of toxicity |
